Reference: patent US8110365B2, “Compositions and methods for detecting and treating renal injury and inflammation” (Rhode Island Hospital, priority 2006, dated 2012)
“Also recorded” adds a separate entry of the source.

What was measured:
MCP-1 and RANTES [1] = test: TNF-α induced chemokine (MCP-1, RANTES) expression in HKC cells; assay type: cell-based, human
Method: In certain embodiments, Enzyme-linked Immunosorbent assay (ELISA) is used to evaluate GSK3b proten level. For example, rat kidneys were homogenized in RIPA [1% Nonidet P-40, 0.1% SDS, 100ug/ml phenylmethysulfonyl fluoride (PMSF), 0.5% sodium deoxycholate, 1 mM sodium orthovanadate, 2 ug/ml aprotin, 2 ug/ml leupeptin, 5 mM EDTA in PBS] buffer. Chemokine levels in homogenates of equal amounts of total protein were measured using specific sandwich enzyme immunometric assay kits for rat. Chemokines in conditioned media from HKC were determined by specific sandwich ELISA kits for human (R&D Systems) according to the manufacturer's instructions. Results were normalized for protein amounts in kidney homogenates, or for cell number in cultures.
Human proximal TEC (HKC-8) (courtesy of Dr. L. Racusen of John Hopkins University, Baltimore, Md.) were maintained in Dulbecco's modified Eagle's medium (DMEM)/F12 supplemented with 5% fetal bovine serum (FBS). Cells were plated at approximately 70% confluence in the media containing 5% FBS for 24 h and then underwent serum starvation for another 24 h. Human recombinant HGF and human recombinant TNF-α (R&D systems, Minneapolis, Minn.) were added to the culture with fresh serum-free medium at a final concentration of 20 ng/ml and 2 ng/ml respectively, or otherwise as indicated. Cell viability was assessed by Trypan blue exclusion. At different time points, cells and conditioned media were harvested for further investigation.

GSK3b and NFkB p65 [2] = molecular target: T1, GSK3b and NFkB p65 (Homo sapiens, UniProt P49841); test: Co-immunoprecipitation of GSK3b and NFkB p65 in HKC cells; assay type: cell-based
T1 construct: whole cell lysates were subjected to immunoprecipitation by anti-GSK3b or anti-p65 antibody; endogenous in cells; host or cells: HKC-8
T1 sequence (P49841 whole entry): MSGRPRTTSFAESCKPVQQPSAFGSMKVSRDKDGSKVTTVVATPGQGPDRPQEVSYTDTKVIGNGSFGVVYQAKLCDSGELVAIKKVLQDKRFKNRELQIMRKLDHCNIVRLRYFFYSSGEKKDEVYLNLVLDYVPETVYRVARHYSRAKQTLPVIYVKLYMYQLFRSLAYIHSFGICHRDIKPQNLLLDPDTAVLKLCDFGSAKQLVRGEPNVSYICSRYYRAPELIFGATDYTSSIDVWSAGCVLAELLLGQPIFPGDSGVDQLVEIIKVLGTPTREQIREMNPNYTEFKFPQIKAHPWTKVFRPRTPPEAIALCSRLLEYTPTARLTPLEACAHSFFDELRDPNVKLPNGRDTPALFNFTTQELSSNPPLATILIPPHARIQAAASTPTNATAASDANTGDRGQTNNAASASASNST
Method: (§1) Immunoprecipitation was carried out by using an established method as described previously. Briefly, cells were washed with ice cold PBS and then lysed with RIPA buffer. After preclearing with normal IgG, cell lysates with equal amount of total protein (0.5 mg of protein) were incubated overnight at 4° C. with 4 μg specific agarose-conjugated antibodies. The precipitated complexes were collected, washed, and separated on SDS-polyacrylamide gels and blotted with various antibodies as indicated.

GSK3b and NFkB p65 [3] = molecular target: T2, GSK3b and NFkB p65 (Homo sapiens, UniProt P49841, S9A); test: as above; assay type: cell-based; conditions: HKC cells expressing S9A, TNF-a stimulation
T2 construct: endogenous in cells; host or cells: HKC-8
T2 sequence (P49841 whole entry S9A): as the sequence (P49841 whole entry) above, with S9A counted along it
Method: as §1

NFkB target genes = test: Real time RT-PCR of NFkB target genes in TNF-a stimulated HKC cells; assay type: cell-based, human
Method: Total RNA was extracted from approximately 1×10^6 cultured HKC cells using TRIzol solution (Invitrogen, Carlsbad, Calif.) according to the instructions specified by the manufacturer. RNA was then diluted to 3μg/μl in RNase free distilled water. The first strand cDNA was prepared using 3 μg RNA, Superscript RT reverse transcriptase (Invitrogen) and oligo (dT) primer according to the manufacture's instruction. Quantitative real time PCR was carried out on a Stratagene Mx4000® multiplex quantitative PCR system (Stratagene, La Jolla, Calif.) using primers specific for human MCP-1, RANTES, IkBa, Bcl-2 and GAPDH. All reactions were performed in triplicate with Brilliant® SYBR® Green QPCR Master Mix (Stratagene). Fluorescence values of SYBR Green I dye, representing the amount of product amplified at that point in the reaction, were recorded in real time at both the annealing step and the extension step of each cycle. The Ct value, defined as the point at which the fluorescence signal was statistically significant above background, was calculated for each amplicon in each experimental sample using Stratagene Mx4000 software. This value was then used to determine the relative amount of amplification in each sample by interpolating from the standard curve. Transcript level of each specific gene was normalized to GAPDH amplification.

MCP-1 and RANTES [4] = test: Chemokine expression in immortalized rat proximal tubular cells (IRPTC); assay type: cell-based
[5] = test system: phosphatidylinositol 3-kinase (PI3K)-Akt; test: PI3K-Akt activation in HUVEC; assay type: cell-based, human
GSK3b = molecular target: T3, GSK3b (Rattus norvegicus, UniProt P18266); test: Renal GSK3b expression in the kidney; assay type: in vivo
T3 construct: from tissue; host or cells: rat kidney (homogenate)
T3 sequence (P18266 whole entry): as the sequence (P49841 whole entry) above, with V240M, T390P, T392A, A400T, T402A counted along it
Method: In certain embodiments, measurement of GSK level and activity in tissue samples is carried out as follows. Total expression of GSK3b, is measured by western immunoblot in kidney homogenates using a commercially available mouse monoclonal antibody against rat GSK3b (Santa Cruz Biotechology). Densitometric analysis of immunoblot bands is used to compare protein abundance of GSK3b in remnant kidneys and controls at each time point.

HGF: Human recombinant HGF (R&D systems); induces inhibitory phosphorylation of GSK3b
HGF inhibition of chemokine (RANTES, MCP-1) expression (MCP-1 and RANTES [1]; HKC cells expressing uninhibitable mutant S9A-GSK3b): abolished HGF inhibition of basal and TNF-α stimulated RANTES expression; also recorded: abolished HGF suppression of E-selectin; also recorded: abolishes HGF's inhibitory effect
HGF inhibition of chemokine (RANTES, MCP-1) expression (MCP-1 and RANTES [1]; HKC cells transfected with pcDNA3 or WT-GSK3b): did not alter the inhibitory action of HGF on RANTES; also recorded: HGF inhibition of chemokine expression was evident
basal and TNF-α induced chemokine (RANTES, MCP-1) expression (MCP-1 and RANTES [1]; HKC cells, lithium 20 mM, HGF 20 ng/ml, TNF-a 2 ng/ml): suppresses basal and TNF-α-induced expression of RANTES in a time and dose dependent fashion; also recorded: suppressed MCP-1 and RANTES in a time and dose dependent manner; also recorded: blocked this induction; also recorded: attenuates TNF-α elicited chemokine expression; also recorded: attenuates TNF-a (2 ng/ml) elicited chemokine expression
TNF-a induced co-precipitation of phosphorylated p65 (Ser468) with GSK3b (GSK3b and NFkB p65 [2]; HKC cells, immunoprecipitation by anti-GSK3b): abrogated TNFa induced co-precipitation
TNF-a induced GSK3b to p65 interaction (GSK3b and NFkB p65 [2]; HKC cells, immunoprecipitation by anti-p65): remarkably overridden by HGF; also recorded: suppressive effect on physical interaction between GSK3b and RelA/p65
co-precipitation of HA-tagged GSK3b with p65 / phosphorylated p65(S468) (GSK3b and NFkB p65 [2]; WT transfected HKC cells, TNF-a stimulation): markedly reduced HA co-precipitation with p65 in the WT transfected cells; also recorded: significantly attenuated by HGF in WT transfected cells
co-precipitation of HA-tagged GSK3b with p65 / phosphorylated p65(S468) (GSK3b and NFkB p65 [3]): considerably abrogated in HKC cells expressing S9A; also recorded: substantially blunted in cells expressing S9A; also recorded: overridden in cells expression the mutant uninhibitable GSK3b
suppressive effect of HGF on TNF-a induced MCP-1 and RANTES mRNA expression (NFkB target genes; HKC cells expressing S9A): obliterated in cells expressing S9A; also recorded: obliterated in cells expressing the mutant uninhibitable GSK3b
suppressive effect of HGF on TNF-a induced MCP-1 and RANTES mRNA expression (NFkB target genes; HKC cells transfected with EV or WT): present in cells transfected with EV or WT
TNF-a induced mRNA expression of IkBa and Bcl-2 (NFkB target genes; HKC cells, 12 h): not remarkably affected
TNF-a induced mRNA expression of MCP-1 and RANTES (NFkB target genes; HKC cells, 12 h): strikingly attenuated TNF-a induced mRNA expression of MCP-1 and RANTES; also recorded: selectively regulates TNF-a induced transcription of specific NFkB target genes
basal and TNF-α induced expression of MCP-1 and RANTES (MCP-1 and RANTES [4]): suppressed basal and TNF-α induced expression of MCP-1 and RANTES
PI3K-Akt activation [5]: activated phosphatidylinositol 3-kinase (PI3K)-Akt
renal GSK3b expression (GSK3b): markedly decreased GSK3b expression
